Experimental data reported in publication PMC4166525 (Organic letters, 2013).

Target: T1, EgtB (Mycolicibacterium smegmatis, UniProt A0R5N0)
T1 sequence (A0R5N0 1-428): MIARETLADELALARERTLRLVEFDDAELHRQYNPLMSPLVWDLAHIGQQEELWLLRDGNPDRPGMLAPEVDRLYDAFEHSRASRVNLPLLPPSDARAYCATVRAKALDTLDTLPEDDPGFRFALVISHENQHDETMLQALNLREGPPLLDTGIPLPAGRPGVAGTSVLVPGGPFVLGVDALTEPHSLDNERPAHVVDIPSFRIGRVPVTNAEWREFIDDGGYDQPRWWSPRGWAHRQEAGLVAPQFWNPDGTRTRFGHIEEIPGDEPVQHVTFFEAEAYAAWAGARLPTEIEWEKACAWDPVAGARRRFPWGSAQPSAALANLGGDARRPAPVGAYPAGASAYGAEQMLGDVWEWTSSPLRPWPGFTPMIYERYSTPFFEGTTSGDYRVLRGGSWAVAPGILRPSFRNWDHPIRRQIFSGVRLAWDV
Test: 1H-NMR assay of product […]
Type: biochemical
Settings: co-substrate γ-Glu-Cys

**Q.** With `C[N+](C)(C)[C@@H](Cc1cnc[nH]1)C(=O)[O-]` [compound 2, hercynine] as the compound, how does the “1H-NMR assay of product 3” value read?
**A.** Native EgtB reaction in ergothioneine biosynthesis
